In brackets after ≈: the same amount, converted by molar mass.
Key:
[1] = test system: Ampicillin resistant (AMP^R) E. coli RKI 66/09 (AmpC); assay: ATP assay for antibiotic susceptibility testing (luminescence, ATP release); assay type: cell-based, Escherichia coli
Method: (§1) Nutrient broth pH 7.4 (5 g/I peptone, 5 g/I NaCl, 2 g/I yeast extract, 1 g/I meat extract) was autoclaved and cooled to room temperature. […] Next, 0.4 mM D-luciferin (Biosynth AG) and 1 mM MgCl2 was added from concentrated stock solutions. The prepared broth was sterilized by filtration (0.2 μm), incubated for 2.5 h at 30° C. in order to burn-off background and then added to a white microplate (0.198 ml per well).
(§2) Ampicillin was added from a dilution series of a filter-sterilized, concentrated stock solution prepared in sterile ultrapure water (5 μl per well). Sterile water was added to control wells without antibiotic. Wells were inoculated with 5 μl of cell suspensions (OD 0.1, prepared in sterile PBS from agar plate pre-cultures) of either Ampicillin resistant (AMP^R) E. coli RKI 66/09 (AmpC) or Ampicillin sensitive (AMP^S) E. coli ATCC 25922. Initial cell concentration in wells was approximately 2.5×10^6 CFU/ml. The microplate was incubated at 37° C. in a luminescence microplate reader and relative luminescence units (RLU) were measured every 2 min for 8 h. For comparison, optical density (600 nm) was measured for all wells after 15 h incubation at 37° C.

[2] = test system: Ampicillin sensitive (AMP^S) E. coli ATCC 25922; assay: as above; assay type: cell-based, Escherichia coli
Method: as §1, §2

[3] = test system: Ampicillin resistant (AMP^R) E. coli RKI 66/09 (AmpC); assay: Optical density (600 nm) after 15 h incubation with ampicillin; assay type: cell-based, Escherichia coli; settings: all tested ampicillin concentrations
Method: as §2

[4] = test system: Ampicillin sensitive (AMP^S) E. coli ATCC 25922; assay: as above; assay type: cell-based, Escherichia coli
Method: as §2

[5] = test system: Salmonella enteritidis RKI 05/07992; assay: Coupled enzyme assay using pro-luciferins on solid nutrient agar with luciferase and ATP; assay type: cell-based; settings: solid nutrient agar with luciferase, pro-luciferin and 1 mM ATP; approx. 10 CFU/well; 37° C.
Method: (§3) Nutrient agar pH 7.4 (5 g/I peptone, 5 g/I NaCl, 2 g/I yeast extract, 1 g/I meat extract, 15 g/I agar) was autoclaved and cooled to 50° C. […] Next, 40 μM D-luciferin (Biosynth AG) was added from a concentrated stock solution.
(§4) Actively growing cultures (Nutrient Broth, 37° C., OD600 0.08 to 0.33) of Staphylococcus aureus ATCC 29213 and Salmonella enteritidis RKI 05/07992 were then diluted to […] in sterile PBS and inoculated to microplate wells with agar (1 μl per well=approx. 10 CFU/well). 1 μl sterile phosphate buffered saline (PBS) was added to sterile control wells. The surrounding wells were filled with sterile water and the plate was incubated at 37° C. in a luminescence microplate reader. The luminescence was measured every 10 min (kinetic mode).
(§5) (Biosynth AG) and 1 mM ATP.

[6] = test system: Staphylococcus aureus ATCC 29213; assay: as above; assay type: cell-based; settings: solid nutrient agar with luciferase, pro-luciferin and 1 mM ATP; approx. 10 CFU/well; 37° C.
Method: as §3, §4, §5

Structure (SMILES): CC1(C)S[C@@H]2[C@H](NC(=O)[C@H](N)c3ccccc3)C(=O)N2[C@H]1C(=O)O [ampicillin]
- time course of ATP release ([1]; 1.56-100 μg/ml ampicillin): independent of ampicillin concentration
- dependency of onset time on ampicillin concentration ([1]; onset time = first time point with RLU above 1200, all tested concentrations): essentially the same onset time
- ATP release at non-inhibitory concentration ([2]; 1.56 μg/ml ampicillin): very high amounts of ATP are released
- time after which ATP increase can be detected ([2]; at inhibitory antibiotic concentrations, cell concentrations as low as 2×10^6 CFU/ml): 30 min
- ATP release compared to the control without antibiotic ([2]; at the MIC or above (6.25, 25, 100 μg/ml)): occurs earlier and is increased
- dependency of onset time on ampicillin concentration ([2]; onset time = first time point with RLU above 1200): inversely correlates with ampicillin concentration
- growth inhibition (optical density after 15 h) [3]: no growth inhibition
- cell growth (optical density after 15 h) ([4]; 10-100 μg/ml ampicillin): lack of cell growth
- MIC ([4]; Escherichia coli, ATCC25922, OD 600 nm, 15 h, 37° C., read-out: MIC from optical density after 15 h): ~6 µg/mL (≈ 17.2 µM)

Structure (SMILES): CCCCCCCC(=O)Oc1ccc(COc2ccc3nc(C4=N[C@@H](C(=O)O)CS4)sc3c2)cc1 [D-luciferin-spacer-caprylate]
- incubation time after which luminescence begins to strongly increase [5]: about 10 hours
- incubation time after which luminescence increases [6]: about 17 hours

— US20230110491A1, “LUCIFERASE-BASED METHODS FOR DETECTING BACTERIAL AND FUNGAL CELLS AND ASSESSING SUSCEPTIBILITY OF BACTERIAL CELLS TO ANTIBIOTICS” (Biosynth AG, priority 2020, published 2023)
